Test results: ChEMBL document CHEMBL1201862, “PubChem BioAssay data set” (2004)
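Grown in 96-well plates, cells were treated for 48 hours with each compound at five concentrations. Insufficient inhibition: endpoint recorded as highest concentration tested. GI50 marks 50% less growth.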 Active and inactive are the calls of the source. Cut-off read from the data, not from the text of the source: active = GI50 up to about 1.1 µM and inactive = higher.

Legend:
Assay in all cases: DTP human tumour cell line panel, 48 h
K562 = system: K562
PC-3 = system: PC-3
SR = system: SR
SNB-19 = system: SNB-19
SN12C = system: SN12C
HCT-116 = system: HCT-116
EKVX = system: EKVX
SF-268 = system: SF-268
UACC-62 = system: UACC-62
T47D = system: T47D
SW-620 = system: SW-620
NCI/ADR-RES = system: NCI/ADR-RES
HL-60 = system: HL-60
NCI-H460 = system: NCI-H460
SF-539 = system: SF-539
M14 = system: M14
MDA-MB-231 = system: MDA-MB-231
A549 = system: A549
RXF 393 = system: RXF 393
Malme-3M = system: Malme-3M

Structure (SMILES) | GI50 (K562) | GI50 (PC-3) | GI50 (SR) | GI50 (SNB-19) | GI50 (SN12C) | GI50 (HCT-116) | GI50 (EKVX) | GI50 (SF-268) | GI50 (UACC-62) | GI50 (T47D) | GI50 (SW-620) | GI50 (NCI/ADR-RES) | GI50 (HL-60) | GI50 (NCI-H460) | GI50 (SF-539) | GI50 (M14) | GI50 (MDA-MB-231) | GI50 (A549) | GI50 (RXF 393) | GI50 (Malme-3M)
Cn1c(-c2ccc[se]2)ccc1-c1ccc(C=O)[se]1 | 0.323 µM (active) | 56.9 µM (inactive) | 7.45 µM (inactive) | > 100 µM (inactive) | 14.9 µM (inactive) | 0.59 µM (active) | 48.5 µM (inactive) | 16.4 µM (inactive) | 0.205 µM (active) | 0.325 µM (active) | 1.3 µM (inactive) | 2.16 µM (inactive) | 9.31 µM (inactive) | 0.308 µM (active) | 3.89 µM (inactive) | > 86.3 µM (inactive) | 35.9 µM (inactive) | 23.3 µM (inactive) |  | 
O=C1c2c(ccc3c2CCCC3)CC1Cc1ccc2c(c1)CCCC2 (stereo unspecified) | 36.1 µM (inactive) | 45.5 µM (inactive) | 9.08 µM (inactive) | > 100 µM (inactive) | 45 µM (inactive) | 25.5 µM (inactive) | 45.5 µM (inactive) | > 100 µM (inactive) | 48 µM (inactive) | 0.787 µM (active) | 61.7 µM (inactive) |  | 5.46 µM (inactive) | 38.5 µM (inactive) | > 100 µM (inactive) | 35.7 µM (inactive) | 37.2 µM (inactive) | 41.5 µM (inactive) | 14.3 µM (inactive) | 54.8 µM (inactive)
O=c1c2ccccc2nnn1-c1n[nH]c2ccccc12 |  | > 100 µM (inactive) |  | > 100 µM (inactive) | > 100 µM (inactive) | > 100 µM (inactive) | > 100 µM (inactive) | > 100 µM (inactive) | > 100 µM (inactive) | > 100 µM (inactive) | > 100 µM (inactive) | > 100 µM (inactive) |  | > 100 µM (inactive) | > 100 µM (inactive) | > 100 µM (inactive) | > 100 µM (inactive) | > 100 µM (inactive) | > 100 µM (inactive) | > 100 µM (inactive)
CC1(C)CC(=O)C2=C(C1)c1c(ccc3ccccc13)NC2c1cn(Cc2ccc(Cl)cc2)c2ccccc12 (stereo unspecified) | 50.9 µM (inactive) | > 100 µM (inactive) | 11.2 µM (inactive) | 75 µM (inactive) | > 100 µM (inactive) | 9.35 µM (inactive) | 30.7 µM (inactive) | > 100 µM (inactive) | > 100 µM (inactive) | 7.19 µM (inactive) | > 100 µM (inactive) | 52.6 µM (inactive) | 37.8 µM (inactive) | 23.9 µM (inactive) | > 100 µM (inactive) | > 100 µM (inactive) | > 100 µM (inactive) | > 100 µM (inactive) |  | 
COc1ccc(NC2=CC(=O)C(=O)c3ccccc32)nn1 | 0.224 µM (active) | 2.73 µM (inactive) |  | 2.9 µM (inactive) | 1.6 µM (inactive) |  | 3.1 µM (inactive) | 1.51 µM (inactive) | 1.34 µM (inactive) | 3.4 µM (inactive) | 1.29 µM (inactive) | 0.514 µM (active) | 0.273 µM (active) | 1.54 µM (inactive) | 0.902 µM (active) | 0.281 µM (active) | 3.69 µM (inactive) | 3.1 µM (inactive) | 1.36 µM (inactive) | 0.661 µM (active)
O=C(O)c1ccc(C(c2c(O)oc3ccccc3c2=O)c2c(O)oc3ccccc3c2=O)cc1 | 15.5 µM (inactive) | > 100 µM (inactive) | 44.3 µM (inactive) | > 100 µM (inactive) | > 100 µM (inactive) | > 100 µM (inactive) |  | 4.97 µM (inactive) | > 100 µM (inactive) | > 100 µM (inactive) | > 100 µM (inactive) | > 100 µM (inactive) | 0.0397 µM (active) | > 100 µM (inactive) | > 100 µM (inactive) | 43.1 µM (inactive) | > 100 µM (inactive) | > 100 µM (inactive) | > 100 µM (inactive) | 
O=C(CN1CCCC1)Nc1ccc2c(c1)C1Oc3ccccc3CC1CO2 (stereo unspecified) | 38.6 µM (inactive) | 24.8 µM (inactive) | 33.3 µM (inactive) |  | > 100 µM (inactive) | 33 µM (inactive) | 69.3 µM (inactive) | 67 µM (inactive) | 17 µM (inactive) | 40.1 µM (inactive) | 17.3 µM (inactive) | 73.3 µM (inactive) | 46.6 µM (inactive) |  | 18.8 µM (inactive) | 20.1 µM (inactive) | 22.9 µM (inactive) | 41.7 µM (inactive) |  | 16.7 µM (inactive)
Brc1ccc(C2(N3CCCCC3)CCCCC2)s1 | 21.1 µM (inactive) | 34.1 µM (inactive) | 19.5 µM (inactive) | 73.1 µM (inactive) | > 100 µM (inactive) | > 100 µM (inactive) | 76.6 µM (inactive) | 48.9 µM (inactive) | 35.5 µM (inactive) | 11.9 µM (inactive) | 31.8 µM (inactive) |  | 19.4 µM (inactive) | 26.7 µM (inactive) |  | 24.4 µM (inactive) | 32 µM (inactive) | 39 µM (inactive) | 14.3 µM (inactive) | 29.3 µM (inactive)
Clc1sc(Cl)c2c1[C@H](Cl)C[C@@H]2Cl | 6 µM (inactive) |  | 58.9 µM (inactive) |  | 16.8 µM (inactive) | 4.85 µM (inactive) | 38.3 µM (inactive) | 17.8 µM (inactive) | 22.2 µM (inactive) | 17.6 µM (inactive) | 3.87 µM (inactive) | 15.9 µM (inactive) |  | 49.2 µM (inactive) | 18.7 µM (inactive) | 15.1 µM (inactive) | 32.1 µM (inactive) | 21.2 µM (inactive) |  | 15 µM (inactive)
COC(=O)CCC12CCC(O1)c1ccccc12 (stereo unspecified) | > 100 µM (inactive) | > 100 µM (inactive) | > 100 µM (inactive) | > 100 µM (inactive) | > 100 µM (inactive) | > 100 µM (inactive) | > 100 µM (inactive) |  | > 100 µM (inactive) | > 100 µM (inactive) | > 100 µM (inactive) | > 100 µM (inactive) | > 100 µM (inactive) | > 100 µM (inactive) | > 100 µM (inactive) | > 100 µM (inactive) | > 100 µM (inactive) | > 100 µM (inactive) | > 100 µM (inactive) | 
O=S1(=O)NN=C(NCc2ccc(F)cc2)c2ccccc21 | 21 µM (inactive) |  | > 44.7 µM (inactive) | 39.3 µM (inactive) | > 100 µM (inactive) | > 100 µM (inactive) | > 100 µM (inactive) | > 100 µM (inactive) | 34.7 µM (inactive) | > 100 µM (inactive) | > 79.3 µM (inactive) | 65.2 µM (inactive) | 13.1 µM (inactive) | > 31.6 µM (inactive) | > 85.5 µM (inactive) | > 50.9 µM (inactive) | > 100 µM (inactive) | > 90.2 µM (inactive) | 34.9 µM (inactive) | > 89.3 µM (inactive)
COc1cc(N(C)C)c(OC)cc1/C=C\c1ccnc2ccccc12 | 4.01 µM (inactive) | 2.92 µM (inactive) |  | > 10 µM (inactive) | 6.32 µM (inactive) | 3.09 µM (inactive) | 2.26 µM (inactive) | 3.63 µM (inactive) | 3.39 µM (inactive) | 0.344 µM (active) | 4.68 µM (inactive) | 2.56 µM (inactive) | 3.7 µM (inactive) | 2.96 µM (inactive) | 2.33 µM (inactive) | 4.93 µM (inactive) | 2.8 µM (inactive) | 7.11 µM (inactive) | > 10 µM (inactive) | 4.86 µM (inactive)
C[C@]12CC(c3ccccc3O1)C(C(N)=O)C(=O)N2 (stereo partly specified) | > 100 µM (inactive) | > 100 µM (inactive) |  | > 100 µM (inactive) | > 100 µM (inactive) | > 100 µM (inactive) | > 100 µM (inactive) | > 100 µM (inactive) | > 100 µM (inactive) | > 100 µM (inactive) | > 100 µM (inactive) | > 100 µM (inactive) | > 100 µM (inactive) | > 100 µM (inactive) |  | > 100 µM (inactive) | > 100 µM (inactive) | > 100 µM (inactive) | > 100 µM (inactive) | > 100 µM (inactive)
Cc1ccc(C)c2c1n1c(=O)n(C)c(=O)n21 |  | > 100 µM (inactive) |  | > 100 µM (inactive) | > 100 µM (inactive) | > 100 µM (inactive) | > 100 µM (inactive) | > 100 µM (inactive) | > 100 µM (inactive) | > 100 µM (inactive) | > 100 µM (inactive) | > 100 µM (inactive) | > 100 µM (inactive) | > 100 µM (inactive) | > 100 µM (inactive) | > 100 µM (inactive) | > 100 µM (inactive) | > 100 µM (inactive) | > 100 µM (inactive) | > 100 µM (inactive)
CC(C)(/C=N\O)NO | > 10 µM (inactive) | > 10 µM (inactive) | > 10 µM (inactive) | > 10 µM (inactive) | > 10 µM (inactive) | > 10 µM (inactive) | > 10 µM (inactive) | > 10 µM (inactive) |  | > 10 µM (inactive) | > 10 µM (inactive) | > 10 µM (inactive) | > 10 µM (inactive) | > 10 µM (inactive) |  | > 10 µM (inactive) | > 10 µM (inactive) | > 10 µM (inactive) | > 10 µM (inactive) | > 10 µM (inactive)
CCOC(=O)c1c(NC(=S)Nc2ccc(C)cc2)sc2c1CCN(C)C2 | > 100 µM (inactive) | > 100 µM (inactive) |  | > 100 µM (inactive) | > 100 µM (inactive) | > 100 µM (inactive) | > 100 µM (inactive) | > 100 µM (inactive) | > 100 µM (inactive) | > 100 µM (inactive) |  | > 100 µM (inactive) | 94.6 µM (inactive) | > 100 µM (inactive) | > 100 µM (inactive) | > 100 µM (inactive) | > 100 µM (inactive) | > 100 µM (inactive) | > 100 µM (inactive) | 
